These results are taken from BindingDB's records for patent US20240217978 (Chong Kun Dang Pharmaceutical, 2024).

pIC50: −log10 of the molar value.

Adenosine receptor A2a, sequence (P29274 whole entry): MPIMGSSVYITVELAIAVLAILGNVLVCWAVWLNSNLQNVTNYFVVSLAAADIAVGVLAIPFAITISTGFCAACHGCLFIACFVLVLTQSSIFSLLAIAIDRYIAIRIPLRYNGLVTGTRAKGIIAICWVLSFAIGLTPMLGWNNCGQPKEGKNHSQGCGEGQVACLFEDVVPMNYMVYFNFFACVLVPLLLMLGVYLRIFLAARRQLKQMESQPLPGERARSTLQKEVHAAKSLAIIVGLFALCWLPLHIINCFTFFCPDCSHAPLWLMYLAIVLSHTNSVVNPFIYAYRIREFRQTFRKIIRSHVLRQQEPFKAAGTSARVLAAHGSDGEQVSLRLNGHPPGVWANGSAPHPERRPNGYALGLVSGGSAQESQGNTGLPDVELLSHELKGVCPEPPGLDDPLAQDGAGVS

The experiment addresses Adenosine receptor A2a (Homo sapiens, UniProt P29274). Briefly: Evaluation of A2a Receptor Binding Affinity. The procedure: A radioligand binding test was conducted by using [3H]-NECA (5′-N-[adenine-2,8-3H]-ethylcarboxamidoadenosine) and an adenosine A2a membrane. As the adenosine A2a membrane, a cell membrane prepared from HEK-293 cells transfected with human adenosine A2a receptor was used. The membrane used for the test was prepared by incubating with a radioligand until equilibrium was reached. In order to separate the radioligand-bound membrane, the unbound radioligand was separated by using Packard filtermate Harverster and glass filter plates.10 μL of test compound dissolved in binding buffer (50 mM Tris, 10 mM MgCl2, 1 mM EDTA pH 7.4) and 20 μL of [3H]-NECA (final concentration of 37 nM) or reference inhibitor was mixed with 20 μL of A2a membrane in an unbound 96-well plate and incubated at room temperature for one hour. Prior to filtration, a 96-well harvest filter plate was coated with 0.33% polyethylenimine for 30 minutes and then washed with assay buffer. The binding reaction was transferred to the filter plate and washed three times with wash buffer. The dish was then dried, scintillant was added, and radioactivity was counted in a scintillation counter (Topcount NXT, Packard).
`CCNC(=O)N1CCN(C(=O)[C@@H]2CCCN2c2nc(N)n3nc(-c4ccco4)nc3n2)CC1` [US20240217978, Example 115] gave a pIC50 of 8.00.
Molecule `Nc1nc(N2CCC[C@H]2C(=O)N2CCC(C(=O)Nc3cccc(F)c3)CC2)nc2nc(-c3ccco3)nn12` [US20240217978, Example 130] had a pIC50 of 8.70.
As to `Nc1nc(N2CCC[C@H]2C(=O)N2CCCN(c3ncccn3)CC2)nc2nc(-c3ccco3)nn12` [US20240217978, Example 277], the pIC50 was 7.92.

As a reminder, the pIC50 is −log10 of the IC50, conventionally taken in molar units.
